Assay results published in patent US10653693B2, “PRMT5 inhibitors and uses thereof” (Epizyme, Inc., priority 2014, dated 2020).

Columns and labels:
Z138 = assay: Cell cycle analysis (propidium iodide staining, FACS); assay type: cell-based, Human; settings: 3 days
Description: Cells were seeded in 6-well tissue culture dishes in a volume of 3 mL IMDM+10% horse serum (supplemented with 0.5 μg/mL puromycin for transduced cell lines). Cells were treated with DMSO, 10 nM Formula C, or 200 nM Formula C for 3 days. Cells were harvested by centrifuging at 2,000 RPM for 5 minutes, washing with PBS, washing with citrate buffer, then aspirating excess citrate buffer to leave approximately 50 μL remaining above pellet. Pellets were frozen at −80° C. until ready to process.
Pellets were propidium iodide-stained for FACS using the Becton Dickinson CycleTEST PLUS kit (cat. #340242). Solutions A, B, and C of the kit were thawed and then kept on ice. Cell pellets were thawed rapidly at 37° C. and pipetted up and down to resuspend in 50 μL of citrate buffer.
Approximately one quarter of the cell pellet volume was transferred to a fresh Eppendorf tube. 250 μL of solution A was added to each sample and then inverted 7 to 10 times. Samples were placed on a shaker at 150 RPM for 10 minutes at room temperature. Samples were on ice when not shaking. 250 μL of solution B and 250 μL of solution C were added to each sample in the same fashion. […]
Samples were processed by FACS on a Becton Dickinson FACSCalibur machine. The percentage of cells in each cell cycle stage was determined using the cell cycle function on the gated single cell population with FlowJo V10 software.

[1] = test system: p53 expression in Z138 cells; assay: p53 and p21 expression analysis (Western); assay type: cell-based, Human; settings: Z138 mantle cell lymphoma cells
Description: Z138 cells were seeded at approximately 3×10^6 cells/dish in 10 cm tissue culture dishes in a volume of 10 mL IMDM+10% horse serum media. Cells were treated with 1 μM of Formula C for 1, 2, 3, 4, or 5 days. Cell pellets were collected by centrifuging at 500×g for 5 minutes, washing once with PBS, and freezing at −80° C. until ready to be processed.
Protein lysates were prepared by adding RIPA buffer (Sigma R0278) containing protease inhibitor (about 5× the volume of the cell pellet, or roughly 250 μL) to each cell pellet and pipetting to resuspend. Samples were sonicated with 10×1 second pulses then centrifuged at maximum speed (13,300 RPM) for 6 minutes. 200 μL of supernatant was transferred to a fresh Eppendorf tube, and pellets were discarded. Protein concentration was determined using a Pierce BCA Protein Assay kit.
Protein gel samples were prepared by combining 20 μg of lysate with appropriate volumes of Life Technologies NuPage Sample Reducing Agent, LDS Sample Buffer, and RIPA buffer. Gel samples were heated for 5-10 minutes at 100° C. in a heat block. A 15-well Invitrogen 4-12% Bis-Tris NuPAGE-SDS gel was loaded with a volume of 19 μL per well, and run in MES SDS buffer at 150V for about 1 hour or until maximal separation of bands was achieved.
Gels were transferred onto nitrocellulose membranes using an Invitrogen iBlot system. […]

[2] = test system: SW48 colon cancer cells (SW48−/− vs SW48); assay: Sensitivity of cells lacking p53 versus wild-type; assay type: cell-based; settings: based on EC50, gIC50, or gIC90
Description: PRMT5 methylation of non-histone substrates (such as E2F1 and p53) also contributes to cancer cell growth and death. Results of Western blot and PCR experiments indicate PRMT5 inhibition leads to gene expression and splicing changes, ultimately resulting in the induction of p53 in cancer cells. A PRMT5 inhibitor of Formula C was used to generate the data in FIG. 21 and FIG. 22.

Z-138 xenograft model = assay: 21 day mantle cell lymphoma xenograft study: TGI and tumor methyl mark; assay type: in vivo; settings: Z-138 efficacy study; all dose groups tested; day 21
Description: Data presented in this example were determined after analysis of 21 day samples of mantle cell lymphoma tumors. Cmin PK samples were taken prior to the last dose on day 21. Tumors were excised, weighed and processed for methyl mark. Methyl mark reduction was measured in tumor samples and is shown as percent of vehicle control (POC). […] Tumor growth inhibition was determined using tumor volume reduction at day 21 expressed as a percent of POC. In vivo inhibition curves were also generated and IC50 values determined. Plasma levels from each group are averaged from 5 animals. […] The average body weight loss (BWL) in all groups was <6%. All doses tested show >50% TGI. […] The average BWL in all groups was <4%. The average BWL in all groups was <8%, except in the 100 mg/kg does group were 4 animals exceeded BWL of 15%.

[3] = test system: MCL cell lines (Z-138, Maver-1, Mino, Jeko-1, Granta-519); assay: Gene expression results from MCL cell lines (Table 4); assay type: cell-based, Human; settings: Day 4
Description: The fold change was calculated using the Comparative Ct method ([…]). N=1. A previous RNA Seq study in MCL cell lines using a tool compound with the same cellular potency as Formula B identified expression changes in a number of genes involved in the apoptotic response (unpublished results). These genes included the Bcl-2 family members PUMA and BAX, well characterized drivers of the apoptotic response. Other genes implicated in the apoptotic response were also identified and include PHLDA3, TP53I3, p21, APOBEC3H, TRIM22, and FAS. […] [table]

Jeko-1 cells = assay: Gene expression of apoptotic response genes (real time PCR); assay type: cell-based, Human; settings: day 4
Description: (§1) The fold change was calculated using the Comparative Ct method ([…]). N=1. A previous RNA Seq study in MCL cell lines using a tool compound with the same cellular potency as Formula B identified expression changes in a number of genes involved in the apoptotic response (unpublished results). These genes included the Bcl-2 family members PUMA and BAX, well characterized drivers of the apoptotic response. Other genes implicated in the apoptotic response were also identified and include PHLDA3, TP53I3, p21, APOBEC3H, TRIM22, and FAS.

Mino cells = assay: as above; assay type: cell-based, Human; settings: day 4
Description: as §1

Granta-519 = assay: as above; assay type: cell-based, Human; settings: day 4
Description: as §1

[4] = tested: Z-138, Maver-1, Granta-519, Jeko-1

SMILES | cell cycle effect (Z138; 10 nM) | cell cycle effect (Z138; 200 nM) | p53 expression [1] | sensitivity of cells lacking p53 compared to wild-type [2] | methyl mark in tumors (sDMA Western blot) (Z-138 xenograft model) | Cell Lines Showing Dose Dependent Changes: P21 ([3]; tested: Z-138, Granta-519, Jeko-1) | Cell Lines Showing Dose Dependent Changes: BAX ([3]; tested: Z-138, Maver-1) | Cell Lines Showing Dose Dependent Changes: FAS [3, 4] | Cell Lines Showing Dose Dependent Changes: TRIM22 [3, 4] | Cell Lines Showing Dose Dependent Changes: PUMA ([3]; tested: Z-138, Maver-1, Mino, Jeko-1, Granta-519) | effects in any of the genes tested (Jeko-1 cells) | effects in any of the genes tested (Mino cells) | gene expression for p21, TRIM22, and FAS (Granta-519) | increase in the gene PHLDA3 (Granta-519) [fold]
O=C(NC[C@H](O)CN1CCc2ccccc2C1)c1ccnc(NC2CCC2)c1 [Formula C] | G1 arrest | cell death | increases | less sensitive |  |  |  |  |  |  |  |  |  | 
CC(=O)N1CCC(Nc2cc(C(=O)NC[C@H](O)CN3CCc4ccccc4C3)ccn2)CC1 [Formula B] |  |  |  |  | completely removed | Z-138, Granta-519 | Z-138, Maver-1 | Granta-519 (slight) | Granta-519 (slight) | Z-138, Maver-1 | did not show any significant effects | did not show any significant effects | only modest increases | ≤ 10
